Experimental findings from the NIST ThermoML archive (doi:10.1021/je200673a) are described below.

The nature of data set [1]: Molar enthalpy of transition or fusion. The settings on record: Crystal; Adiabatic calorimetry.
The conditions of data set [2]: Crystal; Adiabatic calorimetry.

± gives the expanded uncertainty stated by the source.

`C(#Cc1ccccc1)c1ccccc1` [1,2-diphenylethyne]: the “Molar enthalpy of transition or fusion” value in data set [1] was 5.029 ± 0.0454 kcal/mol. The Triple point temperature in data set [2] was 332.02 ± 0.05 K.
